Columns and labels:
USP7 = molecular target: T1, USP7 (Homo sapiens, UniProt Q93009); test: Ub-Rho110 DUB assay, Table 2, USP7; format: biochemical
T1 construct: USP7, full-length, native C-Terminus, 0.2 nM
Protocol: Biochemical USP7 assays using Ubiquitin-Rho110 as a substrate: The final assay conditions were as follows: The Reaction Buffer consisted of: 50 mM Tris (pH 7.5), 0.01% (v/v) Triton X-100, 2.5 mM Dithiothreitol, 0.1% (w/v) bovine gamma globulin (Sigma cat #G5009-25G); USP7, full-length, native C-Terminus, 0.2 nM; the substrate, Ubiquitin-Rho110 (Boston Biochem cat #U-555), 1 uM. Reactions were carried out for 1 hour at room temperature, in black 20 μL volume polystyrene ProxiPlate 384 F Plus® (PerkinElmer cat #6008260).
Test compounds, including a control USP7 inhibitor (Ub-aldehyde, Boston Biochem cat #U-201) were serially diluted in DMSO, in 384 well clear V-bottom polypropylene plates (Greiner cat #781280). Compounds in DMSO were diluted 10-fold into Reaction Buffer, to achieve 3-fold the final desired concentration. The substrate, Ubiquitin-Rho110 (Boston Biochem cat #U-555), was prepared at 3 μM (3-fold the final concentration) and 5 ul was dispensed into the reaction plate. 5 ul of the compounds (diluted in Reaction Buffer at 3-fold the final concentration) were transferred to the reaction plate. 5 ul of 0.6 nM USP7 (diluted in Reaction Buffer at 3-fold the final concentration) was transferred to the reaction plate to initiate the reaction. After 1 hour incubation at room temperature the reaction was quenched by the addition of 5 ul of 400 mM acetic acid. The enzymatic product was measured by quantifying the fluorescence signal of cleaved Rhodamine-110 using excitation at 485 nm and emission at 535 nm. When pre-incubation of USP7 with compounds was required, the order of addition of reagents was modified to pre-mix the compounds with USP7 (with a 1 hour incubation period), prior to the addition of the substrate and the initiation of the reaction period. Percentage inhibition values were calculated relative to a no enzyme control and a uninhibited enzyme control. Curve fitting and IC50 calculations were carried out using Genedata Screener software.

[1] = test system: HCT116 cells (wild type and USP7 null); test: CellTitre-Glo cell viability, HCT116 wild type and USP7 null (FIG. 4); format: cell-based, Human; details: HCT116 wild type versus USP7 null
Protocol: 2,500-5,000 cells were seeded in 1-well of a 96-well plate (Corning; 3904). The following day, the media was changed from normal (10%) to low serum (0.5%) containing vehicle (DMSO) or compounds. 16-24 h later FBS was added to each well to bring serum levels back to normal (10%). Cells were then allowed to grow for 2 days. All treatments were done in triplicate.
Seventy two hours after compounds were added, CellTitre Glo (CTG) reagent was added following the protocol provided by the manufacturer (Promega). In the experiment to test compound dependency on USP7, 3× more USP7 null cells were plated per well (7,500 vs. 2,500 for wild-type (WT) cells), given the slower proliferation of USP7 null cells. For the multiple myeloma experiment, cells seeded in low serum and treated with compounds immediately. Twenty four hours later, serum was added back to normal levels. CTG assay was done 24 h later i.e. 48 h after compounds were added instead of 72 hrs later for the adherent cells.

USP47 = molecular target: T2, USP47 (Homo sapiens, UniProt Q96K76); test: Ub-Rho110 DUB assay, Table 2, USP47; format: biochemical
T2 sequence (Q96K76 1-1375): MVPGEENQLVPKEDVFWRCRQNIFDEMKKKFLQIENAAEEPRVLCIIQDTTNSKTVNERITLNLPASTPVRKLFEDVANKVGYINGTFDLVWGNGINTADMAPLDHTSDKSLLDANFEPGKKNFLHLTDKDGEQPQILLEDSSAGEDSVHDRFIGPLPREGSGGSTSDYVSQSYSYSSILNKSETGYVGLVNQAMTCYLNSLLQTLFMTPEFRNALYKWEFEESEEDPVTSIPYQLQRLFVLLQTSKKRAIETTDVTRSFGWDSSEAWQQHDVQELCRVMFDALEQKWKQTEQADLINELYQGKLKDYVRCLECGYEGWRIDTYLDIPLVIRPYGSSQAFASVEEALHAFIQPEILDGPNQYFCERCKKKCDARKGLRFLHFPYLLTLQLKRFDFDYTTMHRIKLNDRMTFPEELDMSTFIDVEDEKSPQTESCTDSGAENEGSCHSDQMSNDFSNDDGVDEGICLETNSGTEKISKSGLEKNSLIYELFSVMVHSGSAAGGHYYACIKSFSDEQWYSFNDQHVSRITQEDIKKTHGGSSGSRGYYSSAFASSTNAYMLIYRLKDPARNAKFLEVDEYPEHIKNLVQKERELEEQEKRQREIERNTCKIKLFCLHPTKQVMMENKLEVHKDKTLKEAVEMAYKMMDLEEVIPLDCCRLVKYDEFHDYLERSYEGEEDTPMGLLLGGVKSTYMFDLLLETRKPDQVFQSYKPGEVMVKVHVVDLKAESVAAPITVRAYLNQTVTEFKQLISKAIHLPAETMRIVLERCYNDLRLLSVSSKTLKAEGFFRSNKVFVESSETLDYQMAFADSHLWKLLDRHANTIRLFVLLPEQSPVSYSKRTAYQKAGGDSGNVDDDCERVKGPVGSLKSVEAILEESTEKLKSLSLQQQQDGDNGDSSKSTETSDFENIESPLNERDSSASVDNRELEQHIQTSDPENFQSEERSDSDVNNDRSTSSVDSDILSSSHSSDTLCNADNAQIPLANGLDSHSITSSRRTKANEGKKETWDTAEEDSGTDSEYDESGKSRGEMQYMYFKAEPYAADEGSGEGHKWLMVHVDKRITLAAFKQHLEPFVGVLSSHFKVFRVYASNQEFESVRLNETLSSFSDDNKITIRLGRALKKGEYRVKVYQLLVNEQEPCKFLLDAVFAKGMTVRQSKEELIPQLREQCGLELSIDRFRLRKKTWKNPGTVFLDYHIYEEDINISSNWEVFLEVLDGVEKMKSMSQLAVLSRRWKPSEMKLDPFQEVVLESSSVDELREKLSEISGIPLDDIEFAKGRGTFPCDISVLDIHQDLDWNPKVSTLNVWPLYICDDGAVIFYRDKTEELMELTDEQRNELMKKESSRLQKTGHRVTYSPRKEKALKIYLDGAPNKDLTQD

[2] = test system: MCF-7 p53 WT breast cancer cells; test: Incucyte cell proliferation and caspase activity, MCF-7 (FIG. 10, 17); format: cell-based; details: MCF-7 p53 WT compared to MDA-MB157 p53 null cells; compared to 89
Protocol: 2,500-5,000 cells were seeded in 1-well of a 96-well plate (Corning; 3904). The following day, the media was changed from normal (10%) to low serum (0.5%) containing vehicle (DMSO) or compounds. 16-24 h later FBS was added to each well to bring serum levels back to normal (10%). Cells were then allowed to grow for 2 days. All treatments were done in triplicate. The day after cells were seeded, the media was changed to low serum media containing 2 μM CellEvent Caspase 3/7 reagent (Life Technologies; C10423) and compounds. The plates were placed in an IncuCyte (Essen Bioscience, Inc.) live cell imager and scanning was started 15-20 mins after. IncuCyte™ ZOOM facilitates live-cell monitoring via customized imaging protocols. Images were taken every 2 h for at least 3 days, using a 10× objective. Phase contrast was used to measure cell confluency/density while green fluorescence was used to measure caspase activity. The images were analyzed using IncuCyte software (Basic Analysis parameters) and a ratio of caspase activity to cell density was determined.

T1 sequence (Q93009 whole entry): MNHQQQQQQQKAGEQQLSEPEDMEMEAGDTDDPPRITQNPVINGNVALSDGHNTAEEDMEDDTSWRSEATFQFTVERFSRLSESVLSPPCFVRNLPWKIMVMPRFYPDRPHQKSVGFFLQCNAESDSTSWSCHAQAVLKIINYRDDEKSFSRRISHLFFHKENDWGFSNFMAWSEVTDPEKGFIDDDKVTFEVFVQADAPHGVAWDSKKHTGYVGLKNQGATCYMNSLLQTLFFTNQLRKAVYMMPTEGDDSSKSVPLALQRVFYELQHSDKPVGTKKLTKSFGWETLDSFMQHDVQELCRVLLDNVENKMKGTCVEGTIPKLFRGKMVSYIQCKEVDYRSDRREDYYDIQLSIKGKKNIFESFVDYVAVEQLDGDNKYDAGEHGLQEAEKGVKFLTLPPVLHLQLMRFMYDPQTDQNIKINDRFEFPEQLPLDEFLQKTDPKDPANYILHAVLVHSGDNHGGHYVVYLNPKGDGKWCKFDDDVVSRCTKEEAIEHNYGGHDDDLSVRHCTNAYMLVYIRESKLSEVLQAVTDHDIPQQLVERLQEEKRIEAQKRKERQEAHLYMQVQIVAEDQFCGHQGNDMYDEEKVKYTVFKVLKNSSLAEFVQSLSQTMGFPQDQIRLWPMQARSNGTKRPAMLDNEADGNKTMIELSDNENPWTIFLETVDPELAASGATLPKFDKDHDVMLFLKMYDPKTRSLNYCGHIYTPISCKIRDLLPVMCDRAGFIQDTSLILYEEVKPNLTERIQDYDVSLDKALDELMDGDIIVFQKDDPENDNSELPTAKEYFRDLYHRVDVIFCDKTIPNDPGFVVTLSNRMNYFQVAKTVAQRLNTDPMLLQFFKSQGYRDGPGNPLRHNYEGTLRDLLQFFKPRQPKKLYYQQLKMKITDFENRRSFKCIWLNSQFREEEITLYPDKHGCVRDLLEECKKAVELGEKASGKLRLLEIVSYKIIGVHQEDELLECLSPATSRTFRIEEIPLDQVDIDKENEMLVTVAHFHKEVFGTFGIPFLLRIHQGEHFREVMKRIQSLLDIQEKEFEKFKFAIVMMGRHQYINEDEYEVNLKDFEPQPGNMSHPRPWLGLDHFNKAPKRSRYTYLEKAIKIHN

CCc1c(-c2ccc3[nH]ncc3c2)cnc(N)c1-c1ccc(O)cc1 [Compound 88, 4-[2-amino-4-ethyl-5-(1H-indazol-5-yl)-3-pyridyl]phenol]
IC50 (USP7): 980 nM
selectivity of antagonism of USP7 catalytic activity over the DUBs evaluated (USP7; conclusion from Table 2 (USP7, USP7 cat, USP47, USP5)): selective antagonists of USP7 catalytic activity
cell viability [1]: USP7-dependent decrease in viability
IC50 (USP47): > 200 µM
cell viability (Incucyte proliferation and caspase activity) [2]: decreases cell viability
